Read-outs that look alike come from different tables or passages of the source.
Assay: In vivo pharmacokinetic experiment, oral administration
Design: species or system Sprague Dawley rats
Details: for half-life: po, 3 mg/kg
Description: In this Example, the pharmacokinetic properties of compounds 1, 2, 3, 4 and 5 were evaluated via. i.v. and p.o. dosing to Sprague Dawley rats.
Experimental animals used in this Example and hereinafter were male SD rats of 7-9 weeks old, with body weight ranging from 186 to 231 g, which were purchased from Beijing Vital River Laboratory Animal Technology Co., Ltd. The animals were quarantined by veterinarian for 5 days after purchase, then animals had passed quarantine inspection were selected to be tested under SPE conditions, wherein the tested animals are assigned into 3 rats per group as follows.
Oral administration group: 2.74 mg of each of compounds 1-5 was respectively prepared into a solution of 0.3 mg/mL by using 9.113 mL 0.5% CMC-Na as a diluent. Each solution was vortexed 1-2 mins after mixed fully, and then was ultrasonically treated for 20-30 mins until a uniform suspension was obtained. The uniform suspension was used as medicine administrated to oral administration group, and the administration was conducted with a dose of 10 mL/kg body weight of each rat.
For both oral administration group and intravenous administration group, blood samples were collected at 0.0833 h (5 min), 0.25 h (15 min), 0.5 h, 1 h, 2 h, 4 h, 8 h, and 24 h after administration. After isoflurane anesthesia 0.3 mL whole blood was collected from orbital venous plexus of the animals at each time point. The animals would be euthanized after all samples were collected.
The collected blood samples were placed in EP tubes containing heparin sodium (about 10 μl, 1000 IU/mL), which were then placed in trash ice immediately, and centrifuged at 4,000 rpm and a low temperature (4° C.) for 5 minutes. The plasma was isolated rapidly and then stored at −20° C. until analysis.
The concentration of each compound in blood was measured by LC-MS/MS-001 (Q-trap-3200) with osalmide as internal standard material, as follows. 24 μL blank plasma was added into 6 μL plasma sample (5 times of dilution), and then a solution of acetonitrile containing 150 μL internal standard material (osalmide in 100 μg/mL) was added in. The mixture was shaken for 5 minutes, and then centrifuged at 4,000 rpm for 5 minutes. 2 μL of the obtained sample was implanted into LC-MS/MS for analysis. As for undiluted plasma sample, 30 μL of it was added into a solution of acetonitrile containing 150 μL internal standard material (osalmide in 100 μg/mL). The mixture was shaken for 5 minutes, and then centrifuged at 4,000 rpm for 5 minutes. 2 μL of the obtained sample was implanted into LC-MS/MS for analysis.
As for data analysis, WinNolin (V6.2) non-compartment model (NCA) was used for calculating main metabolic pharmacokinetic parameters including t1/2, AUC(0−t), AUCinf, V, Cl, MRT, etc., and Microsoft Office EXCEL was used for calculating mean values, standard deviations and coefficients of variation.

[1] = male, Sprague-Dawley, rat, plasma, oral administration (3 mg/kg), SD rats

half-life shortening relative to compound 1 (after oral administration, rats): ~50% | half-life (male, Sprague-Dawley, rat, plasma, after oral administration, rats, read-out: terminal half-life (converted)): < 5.5 h | half-life (male, Sprague-Dawley, rat, plasma, oral administration (3 mg/kg), SD rats, read-out: T½ (converted)): 5.47 ± 0.63 h | AUC(0-inf) [1]: 3830 ± 184 ng·h/mL | Cmax [1]: 341 ± 36.2 ng/mL | Tmax [1]: 2 h | F (oral administration (3 mg/kg), SD rats): 63.4% | elimination speed after the highest concentration, compared with compounds 1 and 5 (oral administration, rats, FIGS. 1A and 1B, in words): accelerated obviously
SMILES: CC(C)Cc1ccc(-c2nc(-c3ccc(CN4CC(C(=O)O)C4)c(F)c3)no2)cc1 [Compound 2, 1-{2-fluoro-4-[5-(4-isobutylphenyl)-1,2,4-oxadiazol-3-yl]-benzyl}-3-azetidine carboxylic acid]
